The text below walks through data of patent US8829007B2 (priority 2009, dated 2014).

One may read the EC50 as the midpoint of the concentration-response curve. Usually IC50 stands for the concentration at which inhibition is half-maximal.

One assay has as its system A/PR/8/34 influenza virus. In words: microbe, parasite or virus in culture. The class given is cell-based. Conditions: Influenza A virus, PR/8, MDCK, MDCK cells infected with A/PR/8/34, bDNA viral RNA; read-out: EC50 (mean all).
As for `Fc1cnc(-c2c[nH]c3ncc(Cl)cc23)nc1N[C@H]1CCCN(CC(F)F)C1` [Compound 1, (S)-2-(5-chloro-1H-pyrrolo[2,3-b]pyridin-3-yl)-N-(1-(2,2-difluoroethyl)piperidin-3-yl)-5-fluoropyrimidin-4-amine], the EC50 is below 5 µM.

Still in this assay, the particulars now being: Influenza A virus, PR/8, MDCK, MDCK cells infected with A/PR/8/34; replication of influenza virus (viral RNA, bDNA); class symbols; read-out: EC50 (mean all).
In the case of `CC(C)OCC(O)CN1CCCC(Nc2nc(-c3c[nH]c4ncc(Cl)cc34)ncc2F)C1` [Compound 551, 1-((S)-3-((2-(5-chloro-1H-pyrrolo[2,3-b]pyridin-3-yl)-5-fluoropyrimidin-4-ylamino)piperidin-1-yl)-3-isopropoxypropan-2-ol], the concentration for a half-maximal effect (EC50) was below 5 µM.
The same measure, in the same setting: with `COCCC(=O)N1CCC(F)(F)CC1CNc1nc(-c2c[nH]c3ncc(Cl)cc23)ncc1F` (stereo not shown) [Compound 584, 1-(2-((2-(5-chloro-1H-pyrrolo[2,3-b]pyridin-3-yl)-5-fluoropyrimidin-4-ylamino)methyl)-4,4-difluoropiperidin-1-yl)-3-methoxypropan-1-one] the figure was below 5 µM.
On to `CC(C(N)=O)N1CCCC(Nc2nc(-c3c[nH]c4ncc(Cl)cc34)ncc2F)C1` [Compound 583, 2-((S)-3-((2-(5-chloro-1H-pyrrolo[2,3-b]pyridin-3-yl)-5-fluoropyrimidin-4-ylamino)piperidin-1-yl)propanamide], for which the EC50 was below 5 µM.
Regarding `COCCOC(=O)N[C@@H]1CCC[C@H](Nc2nc(-c3c[nH]c4ncc(Cl)cc34)ncc2F)C1` [Compound 592, 2-methoxyethyl N-[(1R,3S)-3-[[2-(5-chloro-1H-pyrrolo[2,3-b]pyridin-3-yl)-5-fluoro-pyrimidin-4-yl]amino]cyclohexyl]carbamate], the 50% effective concentration (EC50) was below 5 µM.
Consider `CC(C(=O)O)N1CCCC(Nc2nc(-c3c[nH]c4ncc(Cl)cc34)ncc2F)C1` [Compound 573, 2-((S)-3-((2-(5-chloro-1H-pyrrolo[2,3-b]pyridin-3-yl)-5-fluoropyrimidin-4-ylamino)piperidin-1-yl)propanoic acid], for which the EC50 was below 5 µM.
In the case of `O=C(O)CN1CCC[C@H](Nc2nc(-c3c[nH]c4ncc(Cl)cc34)ncc2F)C1` [Compound 577], the EC50 was below 5 µM.
In the case of `COC(=O)[C@H]1CCCC[C@@H]1Nc1nc(-c2c[nH]c3ncc(Cl)cc23)ncc1F` [Compound 575, (1S,2S)-methyl 2-(2-(5-chloro-1H-pyrrolo[2,3-b]pyridin-3-yl)-5-fluoropyrimidin-4-ylamino)cyclohexanecarboxylate], the concentration for a half-maximal effect (EC50) is below 5 µM.
Regarding `CC(C)(O)CN1CCC[C@H](Nc2nc(-c3c[nH]c4ncc(Cl)cc34)ncc2F)C1` [Compound 546], the 50% effective concentration (EC50) was below 5 µM.
For `COCC(O)CN1CC[C@H](C)[C@H](Nc2nc(-c3c[nH]c4ncc(Cl)cc34)ncc2F)C1` (stereo partly shown) [Compound 550], the 50% effective concentration (EC50) is below 5 µM.
`CN(C)C(=O)N[C@H]1CCC[C@@H](Nc2nc(-c3c[nH]c4ncc(Cl)cc34)ncc2F)C1` [Compound 549, 3-[(1S,3R)-3-[[2-(5-chloro-1H-pyrrolo[2,3-b]pyridin-3-yl)-5-fluoro-pyrimidin-4-yl]amino]cyclohexyl]-1,1-dimethyl-urea]: the concentration for a half-maximal effect (EC50) is below 5 µM.
As to `COC(=O)N[C@H]1CCC[C@@H](Nc2nc(-c3c[nH]c4ncc(Cl)cc34)ncc2F)C1` [Compound 548, Methyl N-[(1S,3R)-3-[[2-(5-chloro-1H-pyrrolo[2,3-b]pyridin-3-yl)-5-fluoro-pyrimidin-4-yl]amino]cyclohexyl]carbamate], the concentration giving a half-maximal response (EC50) was below 5 µM.
On to `NC(=O)CN[C@@H]1CCC[C@H](Nc2nc(-c3c[nH]c4ncc(Cl)cc34)ncc2F)C1` [Compound 593], for which the EC50 is below 5 µM.
In the case of `COCCOC(=O)[C@H]1CCCC[C@@H]1Nc1nc(-c2c[nH]c3ncc(Cl)cc23)ncc1F` [Compound 574, (1S,2S)-2-methoxyethyl 2-(2-(5-chloro-1H-pyrrolo[2,3-b]pyridin-3-yl)-5-fluoropyrimidin-4-ylamino)cyclohexanecarboxylate], the EC50 is below 5 µM.
Turning to `COC1CCC[C@H](Nc2nc(-c3c[nH]c4ncc(Cl)cc34)ncc2F)C1` (stereo partly drawn) [Compound 552, 2-(5-chloro-1H-pyrrolo[2,3-b]pyridin-3-yl)-5-fluoro-N-((1S)-3-methoxycyclohexyl)pyrimidin-4-amine], the EC50 is below 5 µM.
Take `Fc1cnc(-c2c[nH]c3ncc(Cl)cc23)nc1N[C@H]1CCCN(Cc2ncc[nH]2)C1` [Compound 589, (S)—N-(1-((1H-imidazol-2-yl)methyl)piperidin-3-yl)-2-(5-chloro-1H-pyrrolo[2,3-b]pyridin-3-yl)-5-fluoropyrimidin-4-amine]: the EC50 was below 5 µM.
For `CS(=O)(=O)N[C@@H]1CCCC[C@H]1CNc1nc(-c2c[nH]c3ncc(Cl)cc23)ncc1F` (relative stereo) [Compound 557, N-(trans-2-((2-(5-chloro-1H-pyrrolo[2,3-b]pyridin-3-yl)-5-fluoropyrimidin-4-ylamino)methyl)cyclohexyl)methanesulfonamide], the EC50 is below 5 µM.
Turning to `C[C@@]1(C(=O)O)CCCC[C@H]1Nc1nc(-c2c[nH]c3ncc(Cl)cc23)ncc1F` (stereo in doubt) [Compound 582, Trans-2-(2-(5-chloro-1H-pyrrolo[2,3-b]pyridin-3-yl)-5-fluoropyrimidin-4-ylamino)-1-methylcyclohexanecarboxylic acid], the EC50 was below 5 µM.
Turning to `O=C(O)[C@H]1CCCC[C@H]1Nc1nc(-c2c[nH]c3ncc(Cl)cc23)ncc1F` [Compound 579, (1S,2R)-2-(2-(5-chloro-1H-pyrrolo[2,3-b]pyridin-3-yl)-5-fluoropyrimidin-4-ylamino)cyclohexanecarboxylic acid], the half-maximal effective concentration (EC50) was below 5 µM.
For `CC(C)(C(=O)O)N1CCC[C@H](Nc2nc(-c3c[nH]c4ncc(Cl)cc34)ncc2F)C1` [Compound 590], the EC50 is above 3.3 µM.

Still in this assay, the particulars now being: Influenza A virus, PR/8, MDCK, bDNA assay, A/PR/8/34 influenza virus replication in MDCK cells; class symbols; read-out: EC50 (mean all).
For `N#CCCN1CCC[C@@H](CNc2nc(-c3c[nH]c4ncc(Cl)cc34)ncc2F)C1` [Compound 667, (S)-3-(3-((2-(5-chloro-1H-pyrrolo[2,3-b]pyridin-3-yl)-5-fluoropyrimidin-4-ylamino)methyl)piperidin-1-yl)propanenitrile], the half-maximal effective concentration (EC50) is above 10 µM.
For the molecule `Fc1cnc(-c2c[nH]c3ncc(Cl)cc23)nc1N[C@H]1CCCN(CC(F)(F)F)C1` [Compound 668, (S)-2-(5-chloro-1H-pyrrolo[2,3-b]pyridin-3-yl)-5-fluoro-N-(1-(2,2,2-trifluoroethyl)piperidin-3-yl)pyrimidin-4-amine], the half-maximal effective concentration (EC50) was below 5 µM.
As for `N#CCCCN1CCC[C@@H](CNc2nc(-c3c[nH]c4ncc(Cl)cc34)ncc2F)C1` [Compound 666, (S)-4-(3-((2-(5-chloro-1H-pyrrolo[2,3-b]pyridin-3-yl)-5-fluoropyrimidin-4-ylamino)methyl)piperidin-1-yl)butanenitrile], the EC50 was above 10 µM.

Staying with this assay, now noted: Influenza A virus, PR/8, mean all; replication of A/PR/8/34 influenza virus (bDNA assay); read-out: EC50.
Turning to `C[C@@]1(C(N)=O)CCC[C@H](Nc2nc(-c3c[nH]c4ncc(Cl)cc34)ncc2F)C1` [Compound 924, (1R,3S)-3-[[2-(5-chloro-1H-pyrrolo[2,3-b]pyridin-3-yl)-5-fluoro-pyrimidin-4-yl]amino]-1-methyl-cyclohexanecarboxamide], the concentration for a half-maximal effect (EC50) was below 5 µM.
On to `C[C@]1(C(=O)O)CCC[C@H](Nc2nc(-c3c[nH]c4ncc(Cl)cc34)ncc2F)[C@H]1O` (single isomer, unassigned) [Compound 928], for which the EC50 was below 5 µM.
For the molecule `C[C@@]1(NC(=O)N2CCCC2)CCCC(Nc2nc(-c3c[nH]c4ncc(Cl)cc34)ncc2F)C1` (stereo partly shown) [Compound 926], the EC50 was below 5 µM.

The same assay, now with this note: MDCK cells infected with A/PR/8/34; replication of influenza virus (viral RNA, bDNA); class symbols; read-out: EC50 (mean all).
For the molecule `CC1(O)CCCCCC1Nc1nc(-c2c[nH]c3ncc(Cl)cc23)ncc1F` (stereo not shown) [Compound 581], the EC50 was below 5 µM.
For the molecule `CC(=O)N[C@@H]1CCC[C@H](Nc2nc(-c3c[nH]c4ncc(Cl)cc34)ncc2F)C1` [Compound 547, N-[(1R,3S)-3-[[2-(5-chloro-1H-pyrrolo[2,3-b]pyridin-3-yl)-5-fluoro-pyrimidin-4-yl]amino]cyclohexyl]acetamide], the EC50 was below 5 µM.

Still in this assay, the particulars now being: […]; replication of influenza virus (viral RNA, bDNA); class symbols; read-out: EC50 (mean all).
As to `CC[C@]1(C(=O)O)CCCC[C@H]1Nc1nc(-c2c[nH]c3ncc(Cl)cc23)ncc1F` (relative stereo) [Compound 585, cis-2-(2-(5-chloro-1H-pyrrolo[2,3-b]pyridin-3-yl)-5-fluoropyrimidin-4-ylamino)-1-ethylcyclohexanecarboxylic acid], the EC50 was below 5 µM.

The assay is the same for the next values; noted with them: mean all; A/PR/8/34 influenza virus replication, bDNA; read-out: EC50.
`NC(=O)[C@@H]1CCC[C@H](Nc2nc(-c3c[nH]c4ncc(Cl)cc34)ncc2F)C1` [Compound 847]: the concentration for a half-maximal effect (EC50) is below 5 µM.

For a further assay, the system named is influenza A virus (A/PR/8/34). The assay can be described thus: microbe, parasite or virus in culture. It counts as cell-based. The note with it: Influenza A virus, PR/8, MDCK, MDCK cells infected with A/PR/8/34, cell protection (CPE); read-out: IC50 (mean all).
Turning to `C[N+](C)(C)CC(=O)N1CCC[C@@H](CNc2nc(-c3c[nH]c4ncc(Cl)cc34)ncc2F)C1` [Compound 43, (S)-2-(3-((2-(5-chloro-1H-pyrrolo[2,3-b]pyridin-3-yl)-5-fluoropyrimidin-4-ylamino)methyl)piperidin-1-yl)-N,N,N-trimethyl-2-oxoethanaminium], the IC50 was above 20 µM.
Turning to `CCOC(=O)CCCC(=O)N1CCC[C@@H](CNc2nc(-c3c[nH]c4ncc(Cl)cc34)ncc2F)C1` [Compound 19, (S)-ethyl 5-(3-((2-(5-chloro-1H-pyrrolo[2,3-b]pyridin-3-yl)-5-fluoropyrimidin-4-ylamino)methyl)piperidin-1-yl)-5-oxopentanoate], the half-inhibitory concentration (IC50) was above 20 µM.
On to `CCCNC(=O)N1CCC[C@H](CNc2nc(-c3c[nH]c4ncccc34)ncc2F)C1` [Compound 276], for which the 50% inhibitory concentration (IC50) is above 20 µM.

The assay is the same for the next values; noted with them: Influenza A virus, PR/8, MDCK, mean all; A/PR/8/34 infected MDCK cells, CPE assay; read-out: IC50.
In the case of `CS(=O)(=O)N[C@@H]1CCCC[C@H]1Nc1nc(-c2c[nH]c3ncc(Cl)cc23)ncc1F` [Compound 353, N-[(1R,2R)-2-[[2-(5-chloro-1H-pyrrolo[2,3-b]pyridin-3-yl)-5-fluoro-pyrimidin-4-yl]amino]cyclohexyl]methanesulfonamide], the IC50 is above 20 µM.
